Measured values: ChEMBL document CHEMBL1201862, “PubChem BioAssay data set” (2004)
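All cell lines were grown in 96-well plates and treated with compound for 48 hours. GI50 marks 50% less growth.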 Active and inactive are the calls of the source. No stated cut-off is given here; in the data, active = GI50 up to about 1.1 µM and inactive = higher.

Tests used:
Test in all cases: NCI-60 cell line screen, 48 h
[1] = test system: MOLT-4
[2] = test system: HOP-92
[3] = test system: OVCAR-3
[4] = test system: SNB-78
[5] = test system: K562
[6] = test system: UO-31
[7] = test system: HOP-18
[8] = test system: HL-60
[9] = test system: OVCAR-5
[10] = test system: SN12C
[11] = test system: HT-29
[12] = test system: SF-268
[13] = test system: UACC-62
[14] = test system: KM-20L2
[15] = test system: SNB-75
[16] = test system: NCI-H460
[17] = test system: LXFL 529
[18] = test system: RXF 393
[19] = test system: OVCAR-4
[20] = test system: NCI-H23
[21] = test system: NCI-H522
[22] = test system: HCC 2998
[23] = test system: IGROV-1
[24] = test system: NCI-H226
[25] = test system: SF-295
[26] = test system: DMS-273
[27] = test system: XF498
[28] = test system: SNB-19
[29] = test system: CCRF-CEM
[30] = test system: RXF 631
[31] = test system: KM12
[32] = test system: U-251
[33] = test system: UACC-257
[34] = test system: EKVX
[35] = test system: OVCAR-8
[36] = test system: LOX IMVI
[37] = test system: M19-MEL
[38] = test system: HCT-15
[39] = test system: SK-OV-3
[40] = test system: M14
[41] = test system: ACHN
[42] = test system: SK-MEL-2
[43] = test system: HCT-116
[44] = test system: DMS-114
[45] = test system: COLO 205
[46] = test system: SW-620
[47] = test system: HOP-62
[48] = test system: SF-539
[49] = test system: A549
[50] = test system: DLD-1
[51] = test system: Malme-3M
[52] = test system: SK-MEL-28
[53] = test system: SR
[54] = test system: TK-10
[55] = test system: SK-MEL-5
[56] = test system: CAKI-1
[57] = test system: 786-0
[58] = test system: RPMI-8226
[59] = test system: A498

Measured: GI50

Cc1cn(C2CC(O)C(CO)C2C)c(=O)[nH]c1=O (centres undefined)
inactive: [1] > 100 µM | [2] > 100 µM | [3] > 100 µM | [4] > 100 µM | [5] > 100 µM | [6] > 100 µM | [7] > 100 µM | [8] > 100 µM | [9] > 100 µM | [10] > 100 µM | [11] > 100 µM | [12] > 100 µM | [13] > 100 µM | [14] > 100 µM | [15] > 100 µM | [16] > 100 µM | [17] > 100 µM | [18] > 100 µM | [19] > 100 µM | [20] > 100 µM | [21] > 100 µM | [22] > 100 µM | [23] > 100 µM | [24] > 100 µM | [25] > 100 µM | [26] > 100 µM | [27] > 100 µM | [28] > 100 µM | [29] > 100 µM | [30] > 100 µM | [31] > 100 µM | [32] > 100 µM | [33] > 100 µM | [34] > 100 µM | [35] > 100 µM | [36] > 100 µM | [37] > 100 µM | [39] > 100 µM | [40] > 100 µM | [41] > 100 µM | [42] > 100 µM | [43] > 100 µM | [44] > 100 µM | [45] > 100 µM | [46] > 100 µM | [47] > 100 µM | [48] > 100 µM | [49] > 100 µM | [50] > 100 µM | [51] > 100 µM | [52] > 100 µM
> 100 µM: [38]

CC(=O)NC(CCCCNC(=O)NCCCl)C(=O)NCc1ccccc1 (centres undefined)
inactive: [1] > 100 µM | [2] > 100 µM | [53] > 100 µM | [3] > 100 µM | [5] > 100 µM | [6] > 100 µM | [7] > 100 µM | [8] > 100 µM | [10] > 100 µM | [11] > 100 µM | [12] > 100 µM | [54] > 100 µM | [13] > 100 µM | [14] > 100 µM | [15] > 100 µM | [16] > 100 µM | [17] > 100 µM | [18] > 100 µM | [19] > 100 µM | [55] > 100 µM | [20] > 100 µM | [21] > 100 µM | [56] > 100 µM | [57] > 100 µM | [22] > 100 µM | [24] > 100 µM | [25] > 100 µM | [26] > 100 µM | [27] > 100 µM | [58] > 100 µM | [28] > 100 µM | [29] > 100 µM | [30] > 100 µM | [31] > 100 µM | [32] > 100 µM | [33] > 100 µM | [34] > 100 µM | [35] > 100 µM | [37] > 100 µM | [40] > 100 µM | [41] > 100 µM | [42] > 100 µM | [43] > 100 µM | [44] > 100 µM | [45] > 100 µM | [46] > 100 µM | [47] > 100 µM | [48] > 100 µM | [49] > 100 µM | [50] > 100 µM | [51] > 100 µM | [52] > 100 µM
> 100 µM: [38]

CSc1cc(-c2cc3ccccc3o2)oc(=O)c1C#N
inactive: [1] > 100 µM | [53] 15.5 µM | [4] 88.1 µM | [5] > 100 µM | [6] 37.5 µM | [8] 18.9 µM | [9] 12.2 µM | [10] > 100 µM | [11] > 100 µM | [12] > 100 µM | [54] 21.8 µM | [14] > 100 µM | [15] 16.3 µM | [16] > 100 µM | [17] > 100 µM | [18] 71.4 µM | [19] > 100 µM | [55] > 100 µM | [20] > 100 µM | [56] 8.13 µM | [22] > 100 µM | [23] 7.4 µM | [59] > 100 µM | [25] 40.9 µM | [26] > 100 µM | [27] 5.83 µM | [58] 27.7 µM | [28] 68.9 µM | [29] > 100 µM | [30] 64.7 µM | [31] > 100 µM | [32] > 100 µM | [33] > 100 µM | [34] > 100 µM | [35] > 100 µM | [36] > 100 µM | [40] > 100 µM | [41] > 100 µM | [42] > 100 µM | [43] > 100 µM | [44] 7.43 µM | [45] > 100 µM | [46] > 100 µM | [48] > 100 µM | [49] > 100 µM | [50] > 100 µM | [51] 3.6 µM | [52] > 100 µM
active: [2] 0.301 µM | [7] 0.637 µM | [24] 0.165 µM
> 100 µM: [38]

CCN(CC)c1ccc(/N=N/c2ccc(-c3nc4cccn(C)c-4n3)cc2)cc1
3.75 µM: [38]
inactive: [1] 2.23 µM | [2] 11.7 µM | [53] 2.51 µM | [3] 10.5 µM | [4] 16.7 µM | [5] 2.86 µM | [6] 17.1 µM | [7] 40.1 µM | [8] 1.75 µM | [9] 3.56 µM | [10] 6.04 µM | [11] 1.98 µM | [12] 13.2 µM | [54] 27.9 µM | [13] 11.9 µM | [14] 5.32 µM | [15] 17 µM | [16] 5.07 µM | [17] 3.95 µM | [18] 3.21 µM | [19] 11.2 µM | [55] 4.8 µM | [20] 11.4 µM | [21] 7.11 µM | [56] 16.6 µM | [57] 4.09 µM | [23] 10.7 µM | [24] 19.8 µM | [59] 14.9 µM | [25] 5.04 µM | [26] 3.18 µM | [27] 14.1 µM | [58] 2.36 µM | [28] 15.6 µM | [29] 3.75 µM | [30] 3.41 µM | [31] 8.95 µM | [32] 3.92 µM | [33] 9.14 µM | [34] 18.5 µM | [35] 10.3 µM | [36] 2.52 µM | [37] 5.38 µM | [39] 17.3 µM | [40] 9.33 µM | [42] 17.5 µM | [43] 3.61 µM | [44] 3.61 µM | [45] 14.3 µM | [46] 7.36 µM | [47] 10.4 µM | [48] 12.7 µM | [49] 6.62 µM | [50] 4.83 µM | [51] 12.1 µM

COC(=O)CCSC(=O)Nc1ccc(/N=N/c2ccccc2)cc1
36.1 µM: [38]
inactive: [1] 27.2 µM | [2] 95.7 µM | [53] 30.6 µM | [3] 29.5 µM | [4] > 100 µM | [5] 45.8 µM | [6] 51.3 µM | [7] > 100 µM | [9] 71.1 µM | [10] 69 µM | [11] 68.5 µM | [12] > 100 µM | [54] 61.8 µM | [13] 34.4 µM | [14] 22.7 µM | [15] 31 µM | [16] 31.6 µM | [17] 36.6 µM | [18] > 100 µM | [19] 30.4 µM | [55] 51.9 µM | [20] 34.2 µM | [56] 98.4 µM | [57] 57.7 µM | [22] 23.6 µM | [23] 56.9 µM | [24] 60.4 µM | [59] 29.5 µM | [25] 47.9 µM | [26] 62.7 µM | [27] 37.5 µM | [58] 49.1 µM | [28] 32.1 µM | [29] 50.1 µM | [30] 67.3 µM | [31] 31.1 µM | [32] 37.5 µM | [33] 56.5 µM | [34] 39.5 µM | [35] 45.8 µM | [36] 40.5 µM | [37] 45.4 µM | [39] > 100 µM | [40] 70 µM | [41] 29 µM | [43] 59.3 µM | [44] 53.7 µM | [45] 20.3 µM | [46] > 100 µM | [47] > 100 µM | [48] > 100 µM | [49] 76.4 µM | [50] 52.5 µM | [51] > 100 µM | [52] > 100 µM
